Experimental data taken from PMC5626781, “A Potent Tartrate Resistant Acid Phosphatase Inhibitor to Study the Function of TRAP in Alveolar Macrophages” (Scientific Reports, 2017).

Experiments:
[1] = molecular target: T1, recombinant human TRAP5a (Homo sapiens, UniProt P13686); test: TRAP activity assay (PNPP) with recombinant TRAP5a; type: biochemical; settings: pH 5, 30 min 37 °C, mean ± standard error, n = 3
T1 construct: made in house
T1 sequence (P13686 22-325): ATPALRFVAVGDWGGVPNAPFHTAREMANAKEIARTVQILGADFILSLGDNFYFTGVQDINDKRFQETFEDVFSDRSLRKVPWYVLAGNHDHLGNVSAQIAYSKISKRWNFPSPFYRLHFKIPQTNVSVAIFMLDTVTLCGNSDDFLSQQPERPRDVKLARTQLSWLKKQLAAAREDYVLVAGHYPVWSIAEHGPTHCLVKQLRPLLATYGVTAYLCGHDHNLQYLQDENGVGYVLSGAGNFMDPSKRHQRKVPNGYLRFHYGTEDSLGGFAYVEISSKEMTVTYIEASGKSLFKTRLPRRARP
Experimental: Recombinant unspecified human TRAP was purchased from R&D (Minneapolis, USA). Recombinant human TRAP5a and 5b were produced and purified according to a protocol based on several sources[70]–[72] using an ÄKTApurifier™ 10 FPLC system (GE Healthcare, Danderyd, Sweden) as previously described.
Inhibitor dilutions were prepared in acetate buffer from freshly prepared stock solutions (10 mM in DMSO). Recombinant unspecified TRAP (1.25 ng/ml, pH 4.5), TRAP5a (150 ng/mL, pH 5) or TRAP5b (150 ng/mL, pH 5.8) were incubated at 37 °C for 30 minutes with PNPP solution [10 mM PNPP, 200 mM sodium acetaat, 300 mM potassium chloride) at the indicated pH at a 1:1 ratio and increasing concentrations of NaAuCl4 (range 0–40 μM) or Au compounds (range 0–5.1 μM). To stop the reaction, 1M NaOH was added and absorption at 410 nm, with 490 nm as a reference value, was measured using a spectrophotometer.
The inhibitory effects of gold compounds were calculated as the ratio of absorbance between the treated and untreated wells. The IC50 values were calculated using nonlinear curve fitting with a variable slope in Graphpad Prism 6 (Graphpad Software, la Jolla, USA). An average IC50 of three independent experiments was calculated.

[2] = tested on: RAW264.7 macrophages; test: Live cell imaging of macrophage migration on osteopontin-coated wells; type: cell-based, mouse; settings: AubipyOMe 80 nM
Experimental: Briefly, RAW264.7 macrophages were plated on osteopontin-coated (10 μg/ml, R&D) Lab-tek chamber slides (Nunc, Hatfield, USA). Cells were incubated with or without RANKL (200 ng/ml) for 48 hours to induce TRAP activity or not[75], followed by labeling with carboxyfluorescein diacetate succinimidyl ester (CFSE, Invitrogen, Life Technologies Europe BV, Bleiswijk, The Netherlands) to visualize cells for live cell imaging using a confocal microscope (Solamere Nipkow Confocal Live Cell Imaging system, Solamere Technology Group, Salt lake city, USA). Cell movement was tracked overnight in the presence of 1% zymosan solution (Sigma-Aldrich), to stimulate cell movement, and with or without TRAP inhibitor AubipyOMe (80 nM). Pictures were taken every 10 min and were transformed into movies with Image J and Imaris x64 (Bitplane, Zurich, Switzerland) software.
IC50 of four independent experiments was calculated.
Transwell experiment to assess macrophage migration
Migration of RAW264.7 macrophages was assessed using a transwell-culturing system with inserts (Sigma-Aldrich) coated with osteopontin (10 µg/ml, R&D). Bovine collagen-coated inserts (Advanced Biometrix, Carlsbad, USA) were used as a matrix control. […] The number of cells migrated to the lower well, including dead cells, was calculated relative to control cells and individual experiments were done at least six times. […]

COc1ccnc(-c2cc(OC)ccn2)c1.F[P-](F)(F)(F)(F)F.[Cl][Au+][Cl] [AubipyOMe, [Au(4,4′-dimethoxy-2,2′-bipyridine)Cl2][PF6]]
IC50 [1]: 1300 ± 500 nM
migratory behavior of RANKL-pretreated macrophages, live cell tracking ([2]; RANKL 200 ng/ml 48 h): inhibited this migratory behavior
migratory behavior of control cells, live cell tracking ([2]; no RANKL): did not affect the migratory behavior
